Our source for the MIC values is DBAASP.

Values after ≈ are worked out from the molar mass of the structure shown. Some results are limits rather than exact numbers.

Holding throughout (experiment): ≥ marks a high value that may be exact or a test limit, other limits are often not marked, values filed in µg/mL are converted to µM
Assay [1] has as its system Enterococcus casseliflavus ATCC 700327.
Assay [2] relates to Enterococcus faecalis ATCC 29212.
Assay [3] concerns Escherichia coli ATCC 25922.
The test system of assay [4] is Klebsiella pneumoniae ATCC 13883.
The subject of assay [5] is Staphylococcus aureus ATCC 25923.
In assay [6] the test system is Staphylococcus epidermidis ATCC 12228.
For assay [7], the system named is Klebsiella pneumoniae.
The subject of assay [8] is Pseudomonas aeruginosa ATCC 27853.
In assay [9] the test system is Escherichia coli UB1005.
Assay [10] deals with Salmonella enterica subsp. enterica serovar Choleraesuis CVCC 503.
The subject of assay [11] is Salmonella enterica subsp. enterica serovar Pullorum C79-13.
Assay [12] relates to Salmonella enterica subsp. enterica serovar Typhimurium ATCC 14028.
The subject of assay [13] is Salmonella enterica subsp. enterica serovar Typhimurium C77-31.
For assay [14], the system named is Staphylococcus aureus ATCC 29213.
Assay [15] deals with Staphylococcus aureus ATCC 43300.
For assay [16], the system named is Staphylococcus aureus.
In assay [17] the test system is Streptococcus agalactiae.
Assay [18] relates to Aspergillus oryzae NBRC 100959.
The subject of assay [19] is Candida viswanathii NBRC 10321.
For assay [20], the system named is Escherichia coli NBRC 3972.
The test system of assay [21] is Micrococcus luteus NBRC 3333.
The subject of assay [22] is Staphylococcus epidermidis NBRC 12993.
The test system of assay [23] is Corynebacterium xerosis.
Assay [24] deals with Listeria monocytogenes.
In assay [25] the test system is Pseudomonas aeruginosa K799.
For assay [26], the system named is Salmonella enterica subsp. enterica serovar Typhimurium ATCC 14028s.
Assay [27] has as its system Staphylococcus epidermidis C621.
Assay [28] deals with Streptococcus mitis.
Assay [29] has as its system Streptococcus pneumoniae ATCC 49619.
The subject of assay [30] is Streptococcus pyogenes ATCC 19615.

As for `CC[C@H](C)[C@H](NC(=O)[C@@H](N)Cc1ccccc1)C(=O)NCC(=O)N[C@H](C(=O)N[C@@H](CC(C)C)C(=O)N[C@H](C(=O)N1CCC[C@H]1C(=O)N[C@@H](CC(C)C)C(=O)N[C@@H](C)C(=O)N[C@@H](CC(C)C)C(=O)NCC(=O)N[C@@H](C)C(=O)N[C@@H](CC(C)C)C(=O)N[C@H](C(=O)N[C@@H](CCCCN)C(=O)N[C@@H](CC(C)C)C(=O)N[C@@H](Cc1ccccc1)C(=O)N[C@@H](CCCCN)C(N)=O)[C@@H](C)O)[C@@H](C)CC)[C@@H](C)O` [FIGTLIPLALGALTKLFK], the MIC was 16 µM (≈ 30.6 µg/mL) in [1]; 8 µM (≈ 15.3 µg/mL) in assay [2]; 16 µM (≈ 30.6 µg/mL) in assay [3]; 4 µM (≈ 7.66 µg/mL) in assay [4]; 4 µM (≈ 7.66 µg/mL) in [5]; 2 µM (≈ 3.83 µg/mL) in [6].
As to `CC[C@H](C)[C@H](NC(=O)[C@H](C)NC(=O)CNC(=O)[C@H](CC(C)C)NC(=O)[C@@H](N)Cc1ccccc1)C(=O)N[C@@H](CC(C)C)C(=O)N[C@@H](CCCCN)C(=O)N[C@H](C(=O)NCC(=O)N[C@@H](Cc1cnc[nH]1)C(=O)N[C@@H](C)C(=O)N[C@@H](CC(C)C)C(=O)N[C@@H](C)C(=O)N[C@@H](CCCCN)C(=O)N[C@H](C(=O)N[C@H](C(=O)N[C@@H](CC(C)C)C(=O)N1CCC[C@H]1C(=O)N[C@@H](CCSC)C(=O)N[C@H](C(=O)N[C@H](C(=O)N[C@@H](CC(N)=O)C(=O)N[C@@H](C)C(=O)N[C@@H](Cc1ccccc1)C(=O)N[C@@H](CCCCN)C(=O)N1CCC[C@H]1C(=O)N[C@@H](CCCCN)C(=O)N[C@@H](CCC(N)=O)C(=O)O)[C@@H](C)O)C(C)C)C(C)C)[C@@H](C)O)[C@@H](C)CC` [FLGAILKIGHALAKTVLPMVTNAFKPKQ], the minimum inhibitory concentration (MIC) in [1] was found to be 4 µM (≈ 12 µg/mL); in [2], 8 µM (≈ 24.1 µg/mL); in [3], 8 µM (≈ 24.1 µg/mL); in [4], 8 µM (≈ 24.1 µg/mL); in assay [7] it was 16 µM (≈ 48.1 µg/mL); in [8] it was 32 µM (≈ 96.2 µg/mL). The MIC in [5] is 8 µM (≈ 24.1 µg/mL); in assay [6], 4 µM (≈ 12 µg/mL).
For the compound `CC[C@H](C)[C@H](N)C(=O)N[C@@H](CS)C(=O)N[C@@H](CCCN=C(N)N)C(=O)N[C@@H](CCCCN)C(=O)N1CCC[C@H]1C(=O)N[C@H](C(=O)N[C@H](C(=O)N[C@@H](CS)C(=O)N[C@@H](CCCN=C(N)N)C(=O)N[C@@H](CCCCN)C(=O)N1CCC[C@H]1C(=O)N[C@H](C(=O)N[C@H](C(=O)N[C@@H](CS)C(=O)N[C@@H](CCCN=C(N)N)C(=O)N[C@@H](CCCCN)C(=O)N1CCC[C@H]1C(=O)N[C@H](C(=O)N[C@H](C(=O)N[C@@H](CS)C(=O)N[C@@H](CCCN=C(N)N)C(=O)N[C@@H](CCCCN)C(=O)N1CCC[C@H]1C(=O)N[C@H](C(N)=O)[C@@H](C)CC)[C@@H](C)CC)[C@@H](C)CC)[C@@H](C)CC)[C@@H](C)CC)[C@@H](C)CC)[C@@H](C)CC` [ICRKPIICRKPIICRKPIICRKPI], the MIC in assay [2] was more than 64 µM; in assay [9] it was 2 µM (≈ 5.72 µg/mL); in assay [10] it was 8 µM (≈ 22.9 µg/mL); in assay [11] it was 16 µM (≈ 45.8 µg/mL); in assay [12], 2 µM (≈ 5.72 µg/mL); in assay [13], 4 µM (≈ 11.4 µg/mL). Besides, the MIC in assay [14] is more than 64 µM; in assay [15], more than 64 µM; in assay [16], more than 64 µM; in assay [6], more than 64 µM; in [17] it was not below 64 µM.
As for `CC[C@H](C)[C@H](N)C(=O)N[C@H](C(=O)N[C@@H](CS)C(=O)N[C@@H](CCCN=C(N)N)C(=O)N[C@@H](CCCCN)C(=O)N1CCC[C@H]1C(=O)N[C@H](C(=O)N[C@H](C(=O)N[C@@H](CS)C(=O)N[C@@H](CCCN=C(N)N)C(=O)N[C@@H](CCCCN)C(=O)N1CCC[C@H]1C(=O)N[C@H](C(=O)N[C@H](C(=O)N[C@@H](CS)C(=O)N[C@@H](CCCN=C(N)N)C(=O)N[C@@H](CCCCN)C(=O)N1CCC[C@H]1C(=O)N[C@H](C(=O)N[C@H](C(N)=O)[C@@H](C)CC)[C@@H](C)CC)[C@@H](C)CC)[C@@H](C)CC)[C@@H](C)CC)[C@@H](C)CC)[C@@H](C)CC` [IICRKPIICRKPIICRKPII], the MIC in [2] was more than 64 µM; in assay [3], 4 µM (≈ 9.5 µg/mL); in assay [9], 4 µM (≈ 9.5 µg/mL); in [10], 16 µM (≈ 38 µg/mL); in [11], not below 32 µM; in [12], 8 µM (≈ 19 µg/mL). The MIC is 8 µM (≈ 19 µg/mL) in assay [13]; more than 64 µM in [14]; 64 µM (≈ 152 µg/mL) in assay [15]; more than 64 µM in assay [16]; 64 µM (≈ 152 µg/mL) in assay [6]; not below 64 µM in [17].
Consider `CC[C@H](C)[C@H](NC(=O)[C@H](CCCCN)NC(=O)[C@@H](N)CCCN=C(N)N)C(=O)N[C@@H](CCCCN)C(=O)N[C@@H](CCCN=C(N)N)C(=O)N[C@@H](Cc1ccc(O)cc1)C(=O)N[C@@H](CC(C)C)C(=O)N[C@@H](CCCN=C(N)N)C(=O)N[C@@H](CCCN=C(N)N)C(=O)N[C@@H](CCSC)C(=O)N[C@H](C(=O)N[C@H](C(=O)N[C@@H](Cc1c[nH]c2ccccc12)C(=O)O)[C@@H](C)CC)[C@@H](C)CC` [RKIKRYLRRMIIW], for which the MIC in assay [18] was 13.6 µM (≈ 25 µg/mL); in [19], 27.3 µM (≈ 50 µg/mL); in [20] it was not below 218 µM; in assay [21], 13.6 µM (≈ 25 µg/mL); in assay [22], 13.6 µM (≈ 25 µg/mL).
As to `CC[C@H](C)[C@H](NC(=O)[C@H](CCCN=C(N)N)NC(=O)[C@H](CS)NC(=O)[C@H](CC(C)C)NC(=O)[C@@H](N)CCCN=C(N)N)C(=O)N[C@H](C(=O)N1CCC[C@H]1C(=O)N[C@H](C(=O)N[C@H](C(=O)N[C@@H](CCCN=C(N)N)C(=O)N[C@H](C(=O)N[C@@H](CS)C(=O)N[C@@H](CCCN=C(N)N)C(=O)O)C(C)C)[C@@H](C)CC)C(C)C)C(C)C` [RLCRIVPVIRVCR], the minimal inhibitory concentration (MIC) is 1.26 µM (≈ 2 µg/mL) in assay [23]; 20.2 µM (≈ 32 µg/mL) in assay [2]; 10.1 µM (≈ 16 µg/mL) in assay [9]; 2.53 µM (≈ 4 µg/mL) in [24]; 20.2 µM (≈ 32 µg/mL) in assay [25]; not below 40.4 µM in [26]. The MIC in [5] is more than 40.4 µM; in assay [27], 10.1 µM (≈ 16 µg/mL); in assay [28], 1.26 µM (≈ 2 µg/mL); in [29] it was not below 40.4 µM; in assay [30] it was 20.2 µM (≈ 32 µg/mL).
Take `CC[C@H](C)[C@H](NC(=O)[C@H](CCCN=C(N)N)NC(=O)[C@H](CO)NC(=O)[C@H](CC(C)C)NC(=O)[C@@H](N)CCCN=C(N)N)C(=O)N[C@H](C(=O)N[C@H](C(=O)N[C@H](C(=O)N[C@@H](CCCN=C(N)N)C(=O)N[C@H](C(=O)N[C@@H](CS)C(=O)N[C@@H](CCCN=C(N)N)C(N)=O)C(C)C)[C@@H](C)CC)C(C)C)C(C)C` [RLSRIVVIRVCR]: the minimal inhibitory concentration (MIC) in assay [23] is 0.34 µM (≈ 0.5 µg/mL); in [2], 10.9 µM (≈ 16 µg/mL); in [9] it was 2.72 µM (≈ 4 µg/mL); in assay [24] it was 0.34 µM (≈ 0.5 µg/mL); in [25] it was 10.9 µM (≈ 16 µg/mL); in assay [26], not below 43.5 µM. In addition, the MIC amounted to 10.9 µM (≈ 16 µg/mL) in assay [5]; 1.36 µM (≈ 2 µg/mL) in assay [27]; 0.34 µM (≈ 0.5 µg/mL) in assay [28]; 5.44 µM (≈ 7.99 µg/mL) in [29]; 5.44 µM (≈ 7.99 µg/mL) in assay [30].

A word on the MIC: it is the least concentration at which growth counts as inhibited. Read a low MIC as inhibition by little substance.
